Marks after values point to notes of the source that are not given here.
Legend:
[1] = system: arrhythmia of rats induced by Aconitine; test: Arrhythmia of rats induced by Aconitine; format: in vivo, SD rats
Protocol: Male SD rats, weighing (218.3±20.0) g, were anaesthetized with urethane 1.2 g/kg body weight by abdominal injection, continuously monitored by II lead electrocardiogram (ECG) by MS302 Biological Signal Record and Analysis System. After ten minutes of being administered drug or 0.5% CMC-Na through sublingual vein, rats were injected with Aconitine in external jugular vein at 2.5 μg/min speed, recorded the dose at appearance time of ventricular premature beat (VP), ventricular tachycardia (VT), ventricular fibrillation (VF) and cardiac arrest (CA), respectively. And t test was performed. […] The effect of compounds Ca Do E at 0.5 mg/kg dose were remarkably better than that of Prasterone and Arniodarone.

[2] = system: myocardium injury model of rats induced by ISO; test: Myocardium injury (myocardial ischemia) model of rats induced by ISO; format: in vivo, SD rats; conditions: drug 0.76 mg/kg, n=8; for Σ ST: rats, ISO s.c.
Protocol: SD rats were measured ECG by chest leads before experiment, abandoned those of abnormal or arrhythmia at T wave, ST sect. […] They were divided into four groups according to Table 4, eight rats in each group. As dose of Table 4, tested compounds or 0.5% CMC-Na solution with same volume were administered through duodenum for 30 minutes, rats were anaesthetized with aether. After ECG was recorded, Isoproterenol (ISO) was administered by subcutaneous injection from the back, recorded ECG again after 30 minutes. After specimen was intragastricly granted for 24 hours and 48 hours, every group was administered simples again and recorded ECG again in terms of the methods stated above. After 72 hours, bleeding from the ophthalmic venous plexus and separated blood serum through centrifugation. Killed the rats, scissor the tip of the heart to prepare 10% myocardial tissue homogenate with 4° C. physiological saline as standby.
Measured each rat's value of ST before first administering ISO. And after first, second and third subcutaneous injection for 30 minutes, calculated mv mean value of ΣST as guide line of myocardium injury and performed t test.
The changes of MDA LDH and CK in serum were measured with agent kits.
The changes of MDA, LDH and CK in serum and myocardial tissue homogenate were measured with agent kits.

[3] = system: cerebral ischemia-reperfusion injury of mice; test: Memory step-through test after cerebral ischemia-reperfusion injury; format: in vivo, NIH mice; conditions: 4.5 mg/kg intragastric once a day for 10 days, n=10
Protocol: After weighed, NIH mice were anaesthetized with Penbotarbital 60 mg/kg, then performed operation. Fixed at supine position, the skin in the middle of the deck was dissected about 7 mm. Separated common carotid artery of two sides of neck, surrounded with the thread of No “0”. Common carotid artery of two sides was chipped with artery clip for 2 minutes to induce cerebral ischemia. In the end of ischemia treatment, artery clip was loosed and blood perfusion was restored, rest for five minutes, repeated twice as that. After blocking blood flow of carotid, sutured incision. Recorded trail bloodletting, bloodletting quantity was no more than 10% of total blood quantity. After operation, […] were administered with proper physiological saline through intraperitoneal injection in order to supple capacity of blood. After pseudo operation group was anaesthetized, carotid of two sides was separated but blood flow was not blocked, without being bloodletting too.
In experiment appearance of body temperature lowering and righting reflex disappearing was as positive guide-line of ischemia, discarding those without typical guide line of ischemia. In the procedure of ischemia or after operation, some of animals would be dead. […] According to the dose of Table 7, animals were administered with medicine by intragastric intubation once a day, and continue administered drug for 10 days. After 10 days, memory test was performed.

[4] = system: osteoporosis model of rats induced by Retinoic acid; test: Osteoporosis model of rats induced by Retinoic acid; format: in vivo, SD rats; conditions: Retinoic acid 70 mg/kg, specimen orally 30 days (dose not given), right thighbone, n=8
Source text: After continuously administering specimen for 30 days, killed rats and took right thighbone of rat.
Took same part tissue of right thighbone, routinely decalcified, enveloped with olefin, and dyed with HE. Observed with ordinary optics microscope, import all imagines into computer with A/D conversion of pickup camera, via dealing with image analysis software obtained index of guide line as follows: relative bone volume, indicating percentage that bone trabecula accounted for medullary cavity, 1.25×10×4 times; average width of bone trabecula, 1.25×10×10 times; amount of cell per area in bone trabecula, gathering same area image (640×480) of bone trabecula with image analysis software, calculating amount of bone cell in corresponding area, 1.25×10×40 times; Average length of bone cell lacuna, 1.25×10×40; Average width of bone cell lacuna, 1.25×10×40. The above five indexes of static state guide-line were all observed for ten eyeshots, calculating their average value.

[5] = system: acute renal failure of mice induced by endotoxin; test: Acute renal failure model induced by endotoxin; format: in vivo, NIH mice; conditions: drug 10 mg/kg i.p., endotoxin 0.06 g/kg, after five hours, n=10; for GSH-Px: mice kidney homogenate; for BUN / Cr: mice serum
Protocol: After five hours, blood of the mice was collected by removing eyes, assayed Blood Urea Nitrogen (BUN) and Creatinine (Cr) concentration of serum. One kidney of each […] was taken out and made 100 mL/L homogenate, assayed activity of Glutathione Peroxidase (GSH-Px) enzyme.

[6] = system: thymus and spleen of mice; test: Indexes of thymus and spleen of mice injected with cyclophosphamide; format: in vivo, NIH mice; conditions: cyclophosphamide 60 mg/kg i.p., drug 10 mg/kg intragastric for 30 days, n=10
Protocol: Chose 90 healthy NIH mice, weighing (18˜22)g, equal amount of male and female. Every mouse was injected with cyclophos phamide (60 mg/kg, intraperitoneally). […] Administered specimen through intragastric intubation in terms of the dose in Table 8. Continuously administered orally specimen for 30 days, all mice fasted on the 30th day, but were supplied with water. On the 31th day, mice of every group were killed. Weighed their body, thymus and spleen, calculated index of thymus and spleen, compared the difference among each group.

[7] = system: arrhythmia of guinea pigs induced by Ouabain; test: Arrhythmia of guinea pigs induced by Ouabain; format: in vivo; conditions: n=8
Protocol: Chose 40 male guinea pigs, weighing (288.8±38.3) g, randomly divided into six groups, anaesthetized with urethane 1.2 g/kg by abdominal injection. Ten minutes after administered drug or 0.5% CMC-Na, the guinea pigs were injected Ouabain into external jugular vein at 3 μg/min speed, recorded ECG respectively, measured the dose at appearance time of VP, VT, VF and CA, and performed t test.

[8] = rats, drug 0.5 mg/kg sublingual vein 10 min before Aconitine 2.5 μg/min, n=10
[9] = myocardial tissue homogenate of rats with ISO myocardium injury
[10] = serum of rats with ISO myocardium injury, after 72 hours
[11] = drug 4.5 mg/kg 10 min before Ouabain 3 μg/min
[12] = drug 2.5 mg/kg 10 min before Ouabain 3 μg/min

## C[C@]12CC[C@H](OC(=O)CC(=O)O[C@H]3CC[C@@]4(C)C(=CC[C@@H]5[C@@H]4CC[C@]4(C)C(=O)CC[C@@H]54)C3)CC1=CC[C@@H]1[C@@H]2CC[C@]2(C)C(=O)CC[C@@H]12 [Compound C, malonic acid-(5-androsten-17-one-3β-ol)-diester]
[1]; [8]
  Dose of Aconitine required to induce CA: 0.1865 ± 0.0317 mg/kg
  Dose of Aconitine required to induce VF: 0.1528 ± 0.0393 mg/kg
  Dose of Aconitine required to induce VP: 0.098 ± 0.0291 mg/kg
  Dose of Aconitine required to induce VT: 0.1189 ± 0.0353 mg/kg
[2]; [9]
  Activity of CK: 186.55 ± 26.25 U/L
  Activity of LDH: 201.33 ± 25.24 U/L
  MDA: 121.67 ± 15.24 nmol/g
[2]; 30 min
  Σ ST: 0.64 ± 0.21 mv
[2]; 24 h
  Σ ST: 0.52 ± 0.11 mv
[2]; 48 h
  Σ ST: 0.50 ± 0.14 mv
[2]; 72 h
  Σ ST: 0.52 ± 0.12 mv
[2]; [10]
  Activity of CK: 262.50 ± 35.41 U/L
  Activity of LDH: 270.13 ± 27.46 U/L
  MDA: 28.29 ± 6.56 nmol/mL
[3]
  Latency of dark cabin, Memory: 58.1 ± 16.2 s
  Latency of dark cabin, Study: 24.4 ± 17.3 s
  Number of error: 2.5 ± 1.5 n
[4]
  Amount of cell per area in bone trabecula: 19.50 ± 5.54
  Average width of bone trabecula: 72.69 ± 10.38 μm
[5]
  GSH-Px: 29.8 ± 11.6 nU · L^−1
  BUN: 387.0 ± 40.2*** 10 mg · L^−1

## CC12CCC3C(CC=C4CC(OC(=O)CCC(=O)OC5CCC6(C)C(=CCC7C8CCC(=O)C8(C)CCC76)C5)CCC43C)C1CCC2=O (stereo not drawn) [Compound D, succinic acid-(5-androsten-17-one-3β-ol)-diester]
[1]; {}
  Dose of Aconitine required to induce CA: 0.204 ± 0.028 mg/kg
  Dose of Aconitine required to induce VF: 0.1864 ± 0.0302 mg/kg
  Dose of Aconitine required to induce VP: 0.1224 ± 0.0205 mg/kg
  Dose of Aconitine required to induce VT: 0.1378 ± 0.0244 mg/kg
[2]; [9]
  Activity of CK: 270.41 ± 34.31 U/L
  Activity of LDH: 292.27 ± 29.44 U/L
  MDA: 78.43 ± 7.51 nmol/g
[2]; 30 min
  Σ ST: 0.42 ± 0.20 mv
[2]; 24 h
  Σ ST: 0.47 ± 0.13 mv
[2]; 48 h
  Σ ST: 0.42 ± 0.08 mv
[2]; 72 h
  Σ ST: 0.40 ± 0.10 mv
[2]; [10]
  Activity of CK: 229.27 ± 31.32 U/L
  Activity of LDH: 218.55 ± 37.35 U/L
  MDA: 18.15 ± 4.52 nmol/mL
[3]
  Latency of dark cabin, Memory: 67.4 ± 19.7 s
  Latency of dark cabin, Study: 37.3 ± 15.1 s
  Number of error: 1.2 ± 1.0 n
[6]
  Index of spleen: 103.47 ± 13.40 mg/10 g body weight
  Index of thymus: 25.59 ± 3.70 mg/10 g body weight
[4]
  Amount of cell per area in bone trabecula: 20.70 ± 5.27
  Average width of bone trabecula: 70.76 ± 8.56 μm
  Relative bone volume: 41.55 ± 4.38 %
[5]
  GSH-Px: 38.4 ± 15.0 nU · L^−1
  BUN: 295.5 ± 36.0*** 10 mg · L^−1
  Cr: 29.31 ± 7.94*** 10 mg · L^−1

## C[C@]12CC[C@H](O)CC1=CC[C@@H]1[C@@H]2CC[C@]2(C)C(=O)CC[C@@H]12 [Parsterone, Prasterone, reference compound]
[1]; {}
  Dose of Aconitine required to induce CA: 0.1645 ± 0.0271 mg/kg
  Dose of Aconitine required to induce VF: 0.1327 ± 0.0244 mg/kg
  Dose of Aconitine required to induce VP: 0.0935 ± 0.019 mg/kg
  Dose of Aconitine required to induce VT: 0.11 ± 0.0161 mg/kg
[7]; [11]
  Dose of Oua at appearance of CA: 0.1955 ± 0.033 mg/kg
  Dose of Oua at appearance of VF: 0.1654 ± 0.0264 mg/kg
  Dose of Oua at appearance of VP: 0.0893 ± 0.0155 mg/kg
  Dose of Oua at appearance of VT: 0.1316 ± 0.0246 mg/kg

## C=C1/C(=C\C=C2/CCC[C@]3(C)[C@@H]([C@H](C)CCCC(C)(C)O)CC[C@@H]23)C[C@@H](O)C[C@@H]1O [Rocaltrol, reference compound]
[4]
  Amount of cell per area in bone trabecula: 19.27 ± 3.89
  Average width of bone trabecula: 67.16 ± 13.11 μm
  Relative bone volume: 36.72 ± 7.82 %

## propanediol-disulphonic acid-(5-androsten-17-one-3β-ol)-diester [Compound H]
[7]; [12]
  Dose of Oua at appearance of CA: 0.2232 ± 0.0307 mg/kg
  Dose of Oua at appearance of VF: 0.1981 ± 0.0415 mg/kg
  Dose of Oua at appearance of VP: 0.116 ± 0.037 mg/kg
  Dose of Oua at appearance of VT: 0.1402 ± 0.0356 mg/kg
[2]; [9]
  Activity of CK: 230.15 ± 53.46 U/L
  MDA: 105.52 ± 14.64 nmol/g
[2]; 30 min
  Σ ST: 0.53 ± 0.11 mv
[2]; 24 h
  Σ ST: 0.50 ± 0.10 mv
[2]; 48 h
  Σ ST: 0.52 ± 0.04 mv
[2]; 72 h
  Σ ST: 0.51 ± 0.12 mv
[2]; [10]
  Activity of CK: 261.24 ± 24.27 U/L
  Activity of LDH: 253.24 ± 31.55 U/L
  MDA: 21.17 ± 3.36 nmol/mL
[3]
  Latency of dark cabin, Memory: 56.0 ± 17.2 s
  Latency of dark cabin, Study: 26.2 ± 15.2 s
  Number of error: 3.0 ± 1.5 n
[4]
  Amount of cell per area in bone trabecula: 35.69 ± 3.70
  Average width of bone trabecula: 60.84 ± 4.81 μm
[5]
  GSH-Px: 35.6 ± 10.7 nU · L^−1
  BUN: 366.0 ± 30.2*** 10 mg · L^−1
  Cr: 35.78 ± 7.26*** 10 mg · L^−1

From patent US20040171594A1, “Use of bis-acid(5-androsten-17-one-3beta-hydroxyl)diester for manufacture pharmaceuticals” (priority 2001, published 2004)
